# Measured values: US20200375980A1, “VETERINARY ANTIPROLACTINIC COMPOSITION” (CEVA SANTE ANIMALE, priority 2018, published 2020)
# Tested on: Primiparous sows
# Test: Proof of concept study, WOI (weaning to oestrus interval) in primiparous sows
# Type: in vivo, Sus scrofa domesticus
# Protocol: All sows included in this study were recruited from a single farm having an historical mean of WOI of 5.4 days, and a percentage of delayed oestrus (8 days) of 7.9%. Weaning was set after about 3 weeks of lactation. Primiparous sows (with normal health status and normal farrowing) were allocated into three groups: Cab_0 (n=19 sows): 5.6 μg/kg of cabergoline by intramuscular injection at weaning day (day 0) in sows, i.e. at the end of lactation, without suckling piglets. Cab_2 (n=30 sows): 5.6 μg/kg of cabergoline by intramuscular injection 2 days before weaning (day-2) in sows, i.e. lactation still pending with suckling piglets. Negative control group (n=29 sows): equivalent dose/volume of a ‘true’ placebo by intramuscular injection at Day-2 and day 0.
# [1] = group Cab_0: 5.6 μg/kg intramuscular at weaning day (day 0)
# [2] = group Cab_0: 5.6 μg/kg intramuscular at weaning day (day 0), n=19 sows
# [3] = group Cab_2: 5.6 μg/kg intramuscular 2 days before weaning (day-2), n=30 sows
smiles,measurement,setting,value
"C=CCN1C[C@H](C(=O)N(CCCN(C)C)C(=O)NCC)C[C@@H]2c3cccc4[nH]cc(c34)C[C@H]21 [cabergoline, 1-[(6-allylergolin-8ß-yl)-carbonyl]-1-[3-(dimethylamino)propyl]-3-ethylurea]",impact of the treatment on fertility,"all sows diagnosed positively pregnant after artificial insemination following oestrus detection, Cab_0 and Cab_2 groups",no negative impact
same,"sows exhibiting delayed oestrus (after or equal 8 days), number of sows per group",[1],1/19
same,"sows exhibiting delayed oestrus (after or equal 8 days), percentage",[1],5.3%
same,"number of sows in heats, WOI 8-14 days",[2],1
same,"number of sows in heats, WOI 3 days",[2],1
same,"number of sows in heats, WOI 4 days",[2],6
same,"number of sows in heats, WOI 5 days",[2],8
same,"number of sows in heats, WOI 6 days",[2],2
same,"number of sows in heats, WOI 7 days",[2],1
same,delayed oestrus (after or equal 8 days),group Cab_2: 5.6 μg/kg intramuscular 2 days before weaning (day-2),no delayed oestrus
same,"number of sows in heats, WOI 3 days",[3],2
same,"number of sows in heats, WOI 4 days",[3],13
same,"number of sows in heats, WOI 5 days",[3],10
same,"number of sows in heats, WOI 6 days",[3],5
same,"number of sows in heats, WOI 7 days",[3],0
